Laboratory results taken from patent US7250445B1, “Anti-oxidant suppository for treating radiation proctopathy and other anorectal disorders” (priority 2005, dated 2007).

Legend:
[1] = test system: radiation proctopathy; details: topical; cited from earlier work
[2] = test system: wound healing; details: following burn injury and surgeries; cited from earlier work
[3] = test system: radiation proctopathy; test: randomized double-blinded trial of vitamin A versus placebo in patients with radiation proctopathy; assay type: in vivo, human; details: retinol palmitate 10,000 IU by mouth for 90 days versus placebo
Description: (§1) The present inventor recently described a dramatic case of the patient with AIDS and anal carcinoma with developed a large radiation-induced anal ulceration with marked debility. The patient required high dose opioid therapy for control of anal pain. […] Radiation proctopathy is a form of injury of the rectum from radiation therapy administered for pelvic cancers such as cancers of the prostate, uterus and ovary. The present inventor recently designed, conducted and published a randomized double-blinded trial comparing vitamin A in the form of retinol palmitate (10,000 IU by mouth for 90 days) to placebo in patients with radiation proctopathy. […] The other form of vitamin A, (beta carotene), when applied topically, have the potential to enhance the effectiveness of retinol palmitate for treating radiation proctopathy and other anorectal disorders.

[4] = test system: radiation-induced anal ulceration; test: case of patient with AIDS and anal carcinoma with radiation-induced anal ulceration, oral vitamin A; assay type: in vivo, human; details: single patient
Description: as §1

Row | Compound | efficacy for radiation proctopathy [1] | wound healing [2] | rectal symptoms of radiation proctopathy [3] | persistence of healing and symptomatic relief ([4]; after twelve week oral course) | wound healing and symptoms ([4]; twelve week course, orally administered retinol palmitate)
1 | Nc1ccc(O)c(C(=O)O)c1 [5-ASA, 5-aminosalicylic acid] | appear to be ineffective |  |  |  | 
2 | CCCCCCCCCCCCCCCC(=O)OC/C=C(C)/C=C/C=C(C)/C=C/C1=C(C)CCCC1(C)C [vitamin A, retinol palmitate] |  | accelerate wound healing | significantly reduced rectal symptoms | persisted for more than six months | complete wound healing and symptomatic relief
3 | sucralfate | appear to be ineffective |  |  |  | 
